Data on 12 compounds can be found in patent US20260125356A1, “TREATMENT OF LEISHMANIASIS” (THE UNIVERSITY OF DURHAM, priority 2022, published 2026).

On the set-up of data set [1]: species or system swiss albino mice. The settings on record: mouse, in vivo. The method, then: DMPK studies were performed by GVK BIO Sciences Pvt Ltd Hyderabad, India, in collaboration with LifeArc. Three swiss albino mice per experiment were inoculated (IP or oral) with compound at 10 mg kg^−1 in 10% DMSO (2 mg mL^−1) on day 1. A small blood sample (50 μL) was taken after 15 minutes, 30 minutes, 1 hr, 2 hr, 4 hr, 6 hr, 8 hr and 24 hr. Proteins were precipitated in acetonitrile and the supernatant was diluted in 1:1 methanol:water and subject to LCMS analysis. The concentration of compound in the blood was determined by comparing the peak area to a calibration curve.

The next data set concerns L. major promastigotes. The data set can be described thus: L. major promastigote dose response assay (alamarBlue/resazurin). It is filed as cell-based. The settings on record: 44 hrs + 4 hrs alamarBlue/resazurin, 26° C. The protocol:
(§1) Using a standard alamarBlue™ assay, activity and selectivity were assessed using L. major promastigotes and HepG2 cells, respectively.
All parasite and human cell cultures were grown and manipulated following biosafety level 2 instructions under sterile conditions. L. major FV1, L. amazonensis (MHOM/Br/75/JOSEFA), L. donovani BOB (derived from MHOM/SD/62/1S-CL2D), T. brucei (90-13, 427 strain) and T. cruzi (Dm28c) were used throughout.
All steps were carried out under sterile conditions. Frozen stocks of the relevant Leishmania promastigote species were thawed rapidly and added to Schneider's media. Promastigotes were grown at 26° C. in Nunc EasYFlask 25 cm^2 Nunclon Delta Surface (ThermoScientific) and frozen stocks were prepared on low passage cultures (p2-4) by pelleting the cells by centrifugation and resuspending in Schneider's media with 10% DMSO. The cultures were aliquoted into cryovials (Starlab) and cooled slowly to −150° C. for long term storage.
All steps were carried out under sterile conditions. […] Cycloheximide or amphotericin B were used as positive controls and 2% DMSO was used as a negative control. alamarBlue® (ThermoFisher scientific) or resazurin solution was added to each well and incubated for a further 4 hrs at 26° C. Cell-viability was determined using a BioTek™ FLx800 microplate reader with Gen5® 1.08 data analysis software (BioTek) by monitoring fluorescence emission (λex 560/λem 590 nm). Dose response curves were fitted using sigmoidal regression analysis (GraphPad Prism 8 software) and used to calculate EC50 values.

The test system of data set [2] is L. amazonensis promastigotes. The data set can be described thus: L. amazonensis promastigote dose response assay (alamarBlue/resazurin). It is filed as cell-based. The settings on record: 44 hrs + 4 hrs alamarBlue/resazurin, 26° C., read-out: EC50 (L. amaz)/μM.
The test system of data set [3] is L. donovani promastigotes. The data set is described as follows: L. donovani promastigote dose response assay (resazurin). It is filed as cell-based. The settings on record: promastigotes, 72 hrs at 26° C., resazurin, read-out: EC50 (L. don)/μM.
The next data set relates to HepG2 cells. The data set can be described thus: HepG2 cytotoxicity dose response assay. The settings on record: read-out: CC50 (HepG2)/μM, 44 hrs + 4 hrs alamarBlue/resazurin. The method, then: as §1
All steps were carried out under sterile conditions. HepG2 cells were thawed rapidly into DMEM. Cells were grown at 37° C., 5% CO2 for >5 days in T-75 CytoOne® Flask, TC-Treated, Vented flasks (Starlab) in a Sanyo MCO-18M incubator. […] The trypsin was deactivated by addition of DMEM. The cells were homogenised and 5 mL of cell culture was added to 20 mL fresh DMEM. Cells were split 1:4 every 3 days. Frozen stocks were prepared in the same way as the passage, but resuspended into DMEM with 10% DMSO, aliquoted into cryovials (Starlab) and cooled slowly to −150° C. for long term storage.
All steps were carried out under sterile conditions. 80-100% confluent HepG2 were plated into Corning™ Costar™ 96-Well Flat-Bottom Microplates (Fisher Scientific) by adding 200 μL of a homogenous dispersion of cells at a concentration of 0.6×10^5 cells mL^−1 before incubation at 37° C., 5% CO2 overnight. […] The plates were incubated at 37° C., 5% CO2 for 44 hrs in a Sanyo MCO-18M incubator. alamarBlue® (ThermoFisher scientific) or resazurin solution (10 μL) was added to each well and incubated for a further 4 hrs at 37° C., 5% CO2. Cell-viability was determined using a BioTek™ FLx800 microplate reader with Gen5® 1.08 data analysis software (BioTek) by monitoring fluorescence emission (Nex 560/hem 590 nm). Dose response curves were fitted using sigmoidal regression analysis (GraphPad Prism 8 software) and used to calculate EC50 values.

A further data set can be described thus: Kinetic solubility. The settings on record: for Solubility (FESSIF)/μM: kinetic solubility in FESSIF; for Solubility (FESSIF)/μM / Solubility (PBS)/μM: 2 hrs at RT; for Solubility (PBS)/μM: kinetic solubility in PBS; for solubility at 2 h: kinetic from dmso stock. The text has this:
All chemicals and solvents were sourced from commercial suppliers. Buffers were made up using purified water from a MilliQ® water purification system. Biorelevant buffers (FESSIF, FASSIF and FASSGF) were purchased from Biorelevant and made up according to manufacturer's instructions. 15% FBS (heat inactivated, South American origin, ThermoFisher scientific) in PBS (Fisher Scientific) was filter sterilised (0.22 μm Fisherbrand™ Sterile PES Syringe Filter, Fisher Scientific) before use. Sodium taurocholate was purchased from Merck.
λmax was determined for each compound from the UV-Vis absorption spectrum of a 200 LIM compound solution in buffer of interest using a Varian Cary® 100 UV-Vis Spectrophotometer. A calibration curve of λmax VS concentration was obtained by serial dilution of compound from 200 μM in the buffer of interest, correcting for background buffer absorption. For each sample, a DMSO solution of compound was incubated in buffer of interest (<5% DMSO) for 2 hrs at RT. The solution was filtered (0.22 μm Fisherbrand™ Sterile PES Syringe Filter, Fisher Scientific) or centrifuged (14,500 rpm, 10 min) to remove undissolved debris and the supernatant was removed and diluted as required. The corrected UV absorption of the supernatant at Amax Was measured using a Varian Cary® 100 UV-Vis Spectrophotometer and compared to the calibration curve to determine compound solubility.

Data set [4] has as its system T. brucei bloodstream trypomastigotes. The data set can be described thus: T. brucei bloodstream trypomastigote dose response assay. The settings on record: Trypanosoma brucei; bloodstream trypomastigotes, 48 hrs, CellTiter Blue; read-out: EC50 (T. brucei)/μM. It counts as cell-based.
A further data set relates to T. cruzi epimastigotes. The data set can be described thus: T. cruzi epimastigote dose response assay. It counts as cell-based. The settings on record: Trypanosoma cruzi; epimastigotes, 72 hours at 28° C., counted; read-out: EC50 (T. cruzi)/μM.
The next data set relates to S. aureus (FDA209P). The data set is described as follows: Antibacterial MIC/growth assay, S. aureus. It counts as cell-based. The settings on record: 16 hours at 37° C., absorbance 600 nm. The protocol:
DMSO was used as a solvent control at a maximum final concentration of 10% (a greater percentage than would be achieved using the compounds at the concentrations in question). Plates were incubated at 37° C. with shaking for 16 hours before measuring absorbance at 600 nm. These values were then used to calculate percentage growth at each dilution of compound in comparison to growth in the absence of compound. The following day, the contents of each well were resuspended using a multichannel pipette, and 5 μl from each well was then applied to LB agar plates. These were incubated at 30° C. in a stationary incubator for 16 hours before imaging.

Values after ≈ are worked out from the molar mass of the structure shown. Read-outs that look alike come from different tables or passages of the source.

As for “Ethyl 2-(5′-nitrothiophene-2′-amido)thiophene-3-carboxylate [Compound 4]”, the pharmacokinetic profile entry in data set [1] is “poor pharmacokinetic profiles”. Further, the values for the EC50 (in the data set with L. major promastigotes; in [2]) were 0.93 µM and 1.85 µM, respectively.

Take “Methyl 2-(5′-nitrothiophene-2′-amido)thiophene-3-carboxylate [Compound 3]”: the EC50 is 0.3 µM in data set [3], 0.59 µM in the data set with L. major promastigotes and 0.91 µM in data set [2]. Besides, the pharmacokinetic profile result in data set [1] is “poor pharmacokinetic profiles”.

With “N-methyl-2-(5′-nitrothiophene-2′-amido)thiophene-3-carboxamide [Compound 2]”, the EC50 turned out to be 0.033 µM in [3], 0.99 µM in the data set on L. major promastigotes and 0.29 µM in [2]. Besides, in [1], the pharmacokinetic profile result is reported as “poor pharmacokinetic profiles”.

Take `CNC(=O)c1ccc(Br)cc1NC(=O)c1ccc([N+](=O)[O-])s1` [Compound 46, N-[5-bromo2-(methylcarbamoyl)phenyl]-5′-nitrothiophene-2′-carboxamide]: the EC50 in data set [3] was 0.12 µM; with L. major promastigotes, 0.57 µM; in data set [2] it was 0.048 µM. Also, the CC50 in the data set with HepG2 cells amounted to 7.2 µM. For the same compound, in the data set “Kinetic solubility”, the “Solubility (FESSIF)/μM” value came to 210 µM (≈ 80.7 µg/mL). In addition, in “Kinetic solubility”, the “Solubility (PBS)/μM” value is below 2.5 µM.

Regarding `CNC(=O)c1ccc(C(F)(F)F)cc1NC(=O)c1ccc([N+](=O)[O-])s1` [Compound 45, N-[2-(methylcarbamoyl)-5-(trifluoromethyl)phenyl]-5′-nitrothiophene-2′-carboxamide], the EC50 with L. major promastigotes was 1.84 µM. The EC50 in data set [2] was determined as 0.24 µM. Also, the CC50 in the data set on HepG2 cells turned out to be 13 µM. Further, in the data set “Kinetic solubility”, the “Solubility (FESSIF)/μM” value amounted to 250 µM (≈ 93.3 µg/mL) and the “Solubility (PBS)/μM” value is 6.5 µM (≈ 2.43 µg/mL).

Take `CNC(=O)c1ccc(OC)cc1NC(=O)c1ccc([N+](=O)[O-])s1` [Compound 43, N-[5-methoxy-2-(methylcarbamoyl)phenyl]-5′-nitrothiophene-2′-carboxamide]: the EC50 in data set [3] was 0.006 µM; with L. major promastigotes, 0.33 µM; in [2], 0.021 µM. Further, the CC50 in the data set with HepG2 cells was above 100 µM. The “Solubility (FESSIF)/μM” value in the data set “Kinetic solubility” was found to be 38 µM (≈ 12.7 µg/mL). Also, the “Solubility (PBS)/μM” value in “Kinetic solubility” is below 7.4 µM.

As for `CNC(=O)c1ccc(OCCN2CCOCC2)cc1NC(=O)c1ccc([N+](=O)[O-])s1` [Compound 52, N-[2-(methylcarbamoyl)-5-[2″-(morpholin-4″-yl)ethoxy]phenyl]-5′-nitrothiophene-2′-carboxamide], the EC50 came to 0.134 µM in data set [3] (Leishmania donovani); 0.44 µM with L. major promastigotes (Leishmania major, 48 h); 0.27 µM in data set [2] (Leishmania amazonensis, 48 h); 0.78 ± 0.4 µM in [4]; 13 ± 1 µM in the data set with T. cruzi epimastigotes. The solubility at 2 h was above 8000 µM in the data set “Kinetic solubility” (FASSGF, fassgf or other biorelevant); 148 µM (≈ 64.3 µg/mL) in the data set “Kinetic solubility” (FASSIF); 1870 µM (≈ 812 µg/mL) in “Kinetic solubility” (FESSIF); 19.3 µM (≈ 8.39 µg/mL) in the data set “Kinetic solubility” (PBS, aqueous buffer).

As for `CNC(=O)c1ccccc1NC(=O)c1ccc([N+](=O)[O-])s1` [Compound 28, N-[2-(methylcarbamoyl)phenyl]-5′-nitrothiophene-2′-carboxamide], the values for the EC50 (in [3]; with L. major promastigotes; in [2]) were 0.012 µM, 0.65 µM and 0.052 µM, respectively. In the data set with HepG2 cells, the CC50 was determined as 5 µM. Further, in “Kinetic solubility”, the “Solubility (FESSIF)/μM” value turned out to be 143 µM (≈ 43.7 µg/mL). The “Solubility (PBS)/μM” value in the data set “Kinetic solubility” came to 8.5 µM (≈ 2.6 µg/mL).

As to `CNC(=O)c1ccc(C)cc1NC(=O)c1ccc([N+](=O)[O-])s1` [Compound 44, N-[5-methyl-2-(methylcarbamoyl)phenyl]-5′-nitrothiophene-2′-carboxamide], the EC50 was 0.005 µM in [3], 0.34 µM in the data set on L. major promastigotes and 0.027 µM in data set [2]. Further, the CC50 in the data set with HepG2 cells was determined as 31 µM. Further, the “Solubility (FESSIF)/μM” value in “Kinetic solubility” was 65 µM (≈ 20.8 µg/mL). Moreover, the “Solubility (PBS)/μM” value in the data set “Kinetic solubility” is below 7.4 µM.

As to “N-(3-carbamoylthiophen-2-yl)-5′-nitrothiophene-2′-carboxamide [Compound 1]”, the results for the EC50 (in data set [3]; in the data set with L. major promastigotes; in [2]) were 0.004 µM, 0.52 µM and 0.042 µM, respectively. For the same compound, the pharmacokinetic profile result in [1] is “poor pharmacokinetic profiles”.

As for `CNC(=O)c1ccc(OCCC2CCOCC2)cc1NC(=O)c1ccc([N+](=O)[O-])s1` [Compound 54, N-[2-(methylcarbamoyl)-5-[2″-(oxan-4″-yl)ethoxy]phenyl]-5′-nitrothiophene-2′-carboxamide], the EC50 in data set [3] (Leishmania donovani) is 0.34 µM; in the data set on L. major promastigotes (Leishmania major, 48 h), 0.33 µM; in data set [2] (Leishmania amazonensis, 48 h) it was 0.46 µM. Moreover, the solubility at 2 h is 47 µM (≈ 20.4 µg/mL) in “Kinetic solubility” (FESSIF) and 3.7 µM (≈ 1.6 µg/mL) in “Kinetic solubility” (PBS, aqueous buffer). Besides, in the data set on S. aureus (FDA209P), the “inhibition of growth of S. aureus” value is on record as “effective at inhibiting the bacteria at low concentrations”.

As for `CNC(=O)c1ccc(C(C)(C)C)cc1NC(=O)c1ccc([N+](=O)[O-])s1` [Compound 55, N-[5-tert-butyl-2-(methylcarbamoyl)phenyl]-5′-nitrothiophene-2′-carboxamide], the EC50 in data set [3] (Leishmania donovani) worked out at 1.3 µM; in the data set on L. major promastigotes (Leishmania major, 48 h), 1.35 µM; in data set [2] (Leishmania amazonensis, 48 h), 2.5 µM. In addition, the solubility at 2 h in “Kinetic solubility” (FESSIF) is 260 µM (≈ 94 µg/mL); in the data set “Kinetic solubility” (PBS, aqueous buffer), below 2.5 µM.
